± gives the expanded uncertainty stated by the source.
Assay: osmotic coefficient (dimensionless); mn = molality of the nth substance listed, in mol/kg
Conditions: 101 kPa, Liquid, isopiestic method

C1CN2CN3CCN(CN1C3)C2 [1,3,6,8-tetraazatricyclo[4.4.1.1(3,8)]dodecane] + O
Conditions | osmotic coefficient
288.15 K, m1 = 0.2149 | 0.9605 ± 0.0017
288.15 K, m1 = 0.2154 | 0.9583 ± 0.0018
288.15 K, m1 = 0.3036 | 0.9533 ± 0.0019
288.15 K, m1 = 0.3041 | 0.9518 ± 0.002
288.15 K, m1 = 0.5049 | 0.9571 ± 0.0018
288.15 K, m1 = 0.5066 | 0.9563 ± 0.0019
288.15 K, m1 = 0.603 | 0.9824 ± 0.0013
288.15 K, m1 = 0.604 | 0.9816 ± 0.0013
288.15 K, m1 = 0.7629 | 1.016 ± 0.0013
288.15 K, m1 = 0.7638 | 1.015 ± 0.0013
288.15 K, m1 = 1.011 | 1.1
293.15 K, m1 = 0.2023 | 0.991 ± 0.0011
293.15 K, m1 = 0.2031 | 0.9887 ± 0.0011
293.15 K, m1 = 0.3454 | 0.9917 ± 0.0011
293.15 K, m1 = 0.3458 | 0.9907 ± 0.0011
293.15 K, m1 = 0.5003 | 0.993 ± 0.001
293.15 K, m1 = 0.5009 | 0.9919 ± 0.0011
293.15 K, m1 = 0.7613 | 1.035 ± 0.0016
293.15 K, m1 = 0.7629 | 1.033 ± 0.0016
293.15 K, m1 = 0.9099 | 1.056 ± 0.0023
293.15 K, m1 = 0.9108 | 1.055 ± 0.0022
293.15 K, m1 = 1.068 | 1.119 ± 0.0046
293.15 K, m1 = 1.069 | 1.118 ± 0.0046
298.15 K, m1 = 0.2201 | 1.014 ± 0.0011
298.15 K, m1 = 0.2205 | 1.012 ± 0.0011
298.15 K, m1 = 0.3086 | 1.017 ± 0.0012
298.15 K, m1 = 0.3087 | 1.016 ± 0.0012
298.15 K, m1 = 0.5052 | 1.028 ± 0.0014
298.15 K, m1 = 0.5055 | 1.027 ± 0.0014
298.15 K, m1 = 0.562 | 1.032 ± 0.0015
298.15 K, m1 = 0.5624 | 1.032 ± 0.0015
298.15 K, m1 = 0.7125 | 1.045 ± 0.0019
298.15 K, m1 = 0.9849 | 1.075 ± 0.003
298.15 K, m1 = 0.9867 | 1.073 ± 0.0029
303.15 K, m1 = 0.2074 | 0.972 ± 0.0014
303.15 K, m1 = 0.2079 | 0.9707 ± 0.0015
303.15 K, m1 = 0.3266 | 0.9871 ± 0.0011
303.15 K, m1 = 0.3271 | 0.9863 ± 0.0011
303.15 K, m1 = 0.5022 | 1.015 ± 0.0011
303.15 K, m1 = 0.5029 | 1.014 ± 0.0011
303.15 K, m1 = 0.6864 | 1.033 ± 0.0015
303.15 K, m1 = 0.6868 | 1.034 ± 0.0016
303.15 K, m1 = 0.7946 | 1.057 ± 0.0023
303.15 K, m1 = 0.7955 | 1.057 ± 0.0023
303.15 K, m1 = 1.028 | 1.103 ± 0.004
303.15 K, m1 = 1.029 | 1.102 ± 0.004
